US20110046381A1, “NOVEL 4-{3-[4-(3-{4-[AMINO (BUTOXYCARBONYLIMINO) METHYL] PHENOXY} PROPYL)-1-PIPERIDINYL] PROPOXY]-N'-(BUTOXYCARBONYL) BENZAMIDINE CRYSTALS” (Toyama Chemical Co., Ltd., priority 2007, published 2011)

Legend:
[1] = Tapped density (Test Example 1); format: physicochemical; settings: sieved 18 mesh, tapped 180 times, W/V1
Procedure: The test materials passed through a sieve (18 mesh) were filled into a measuring cylinder and the weight W(g) of the filled test materials was measured. Next, the measuring cylinder containing the test materials was mechanically tapped 180 times by a powder characteristic measuring device (a powder tester PT-E, Hosokawa Micron Corporation). After tapping, the volume V1 (mL) of the tapped test materials was measured. By the following formula, the tapped density (g/mL) was calculated. Tapped density (g/mL)=W/V1

[2] = Surface potential after corona discharge (Test Example 2); format: physicochemical; settings: 25° C., 50% RH; corona discharge −4 kV for 2 minutes
Procedure: The following test was conducted in a thermo-hygrostat (25° C., 50% RH). The test materials were set in a sample plate (SUS304, the surface was ground by a buff400, the volume: about 6 mL, the depth: 3 mm, cylindrical, the upper aspect was opened), and was charged by corona discharge (the corona voltage: −4 kV) from an impressed voltage device for 2 minutes (the distance between the impressed voltage device and the sample plate: 30 mm). After charging, the surface potential of the test materials was measured (the distance between the sensor and the sample: 5 mm). Thermo-hygrostat: KCL-2000, EYELA CORPORATION Surface potential measurement device: SK-200, KEYENCE CORPORATION Impressed voltage device: SJ-G036, KEYENCE CORPORATION Data logger: AD-DIO Card Bus, Interface Corporation

[3] = Sticking test, scraper pressure of tablets (Test Example 3); format: physicochemical; settings: tablets containing 200 mg, diameter 8.5 mm, loading pressure 10 kN
Procedure: Tablets (flat-shaped, the diameter 8.5 mm) containing 200 mg of the test materials were prepared by using a tableting process analyzer (Tab Flex TAB-10, OKADA SEIKO CO., LTD.) (the loading pressure: 10 kN). Next, the scraper pressure was measured when the tablets were pushed out by a scraper.

[4] = Adhesion test to a metal cup (Test Example 4); format: physicochemical; settings: 5 g test material in SUS304 metal cup, weight adhering after turning over the cup
Procedure: 5 g of the test materials passed through a sieve (18 mesh) are filled in a metal cup (SUS304, the internal diameter: 65 mm, the volume: about 200 mL), and then the test materials were removed by turning over the cup. The weight of the test materials adhering on the surface of the cup was measured.

[5] = Compression moldability test, tablet hardness (Test Example 5); format: physicochemical; settings: 200 mg tablets
Procedure: Tablets (flat-shaped, the diameter: 8.5 mm) containing 200 mg of the test materials were prepared by using a tableting process analyzer (Tab Flex TAB-10, OKADA SEIKO CO., LTD.) (The loading pressure: 5 and 10 kN). Next, the breaking strength of the tablets was measured by a tablet hardness tester (PC-30, OKADA SEIKO CO., LTD.).

[6] = tested on: Candida albicans TIMM1623; assay: Mouse Candida infection model test, oral administration (Test Example 6); format: in vivo; settings: immunosuppressed mice, i.v. infection about 3×10^4 CFU/mouse; 1 mg/kg orally once daily for 4 days; observed for 14 days; 5 mice/group
Procedure: Candida albicans TIMM1623, which was obtained from overnight cultures grown on Sabouraud dextrose agar (SDA) plates at 35° C., was suspended in sterile physiological saline, then diluted to prepare a suspension of inoculum organism.
Transient immunosuppression in mice (four-week-old, 5 mice/group) was induced by intraperitoneal treatment with 200 mg/kg cyclophosphamide 4 days before the infection and with 100 mg/kg cyclophosphamide 1 day after the infection. Infection was induced by the intravenous inoculation of 0.2 mL of the cell suspension of Candida albicans TIMM1623 (about 3×10^4 CFU/mouse) via the lateral tail vein. The test compound was dissolved in 0.1 mol/L hydrochloric acid, diluted by sterilized water and orally administered at 1 mg/kg of mouse body weight. The therapy was started at 2 hours after infection and carried out once daily for 4 days. The equivalent amount of sterilized physiological saline was administered to the group to which no test compound was administered. The survival number of mice was observed and recorded for 14 days.

Row | SMILES | Tapped density [1] [g/mL] | Surface potential [2] [kV] | Scraper pressure [3] [kN] | Adhering amount [4] [mg] | Hardness ([5]; Loading pressure 5 kN) [N] | Hardness ([5]; Loading pressure 10 kN) [N] | mice survived [6] [%]
1 | CCCCOC(=O)N=C(N)c1ccc(OCCCC2CCN(CCCOc3ccc(C(N)=NC(=O)OCCCC)cc3)CC2)cc1 [Type I crystal, 4-{3-[4-(3-{4-[amino(butoxycarbonylimino)methyl]phenoxy}propyl)-1-piperidinyl]propoxy}-N′-(butoxycarbonyl)benzamidine] | 0.22 | −2.3 | 7.2 | 70 | 56 | 57 | 80
2 | CCCCOC(=O)N=C(N)c1ccc(OCCCC2CCN(CCCOc3ccc(C(N)=NC(=O)OCCCC)cc3)CC2)cc1 [Type II crystal, 4-{3-[4-(3-{4-[amino(butoxycarbonylimino)methyl]phenoxy}propyl)-1-piperidinyl]propoxy}-N′-(butoxycarbonyl)benzamidine] | 0.40 |  | 2.9 | 17 | 63 | 94 | 80
3 | CCCCOC(=O)N=C(N)c1ccc(OCCCC2CCN(CCCOc3ccc(C(N)=NC(=O)OCCCC)cc3)CC2)cc1 [Type III crystal, 4-{3-[4-(3-{4-[amino(butoxycarbonylimino)methyl]phenoxy}propyl)-1-piperidinyl]propoxy}-N′-(butoxycarbonyl)benzamidine] | 0.45 | −1.9 | 1.9 | 22 | 66 | 95 | 80
4 | CCCCOC(=O)N=C(N)c1ccc(OCCCC2CCN(CCCOc3ccc(C(N)=NC(=O)OCCCC)cc3)CC2)cc1 [Type IV crystal, 4-{3-[4-(3-{4-[amino(butoxycarbonylimino)methyl]phenoxy}propyl)-1-piperidinyl]propoxy}-N′-(butoxycarbonyl)benzamidine] | 0.47 | −1.3 | 2.9 | 40 |  |  | 80
